# Experimental data as given in PMC3900249 (Clinical pharmacology and therapeutics, 2012).
# What was measured:
# [1] = single warfarin dose studies, healthy volunteers (n = 5 or 6); cited from earlier work
# [2] = system: CYP2C9-mediated (S)-warfarin 7-hydroxylation; assay: Prediction of in vivo warfarin drug interaction from [I]/KI and [I]u/KI,u; parameters: species or system human; settings: equation 1
structure (smiles),measurement,setting,value
CC(=O)C[C@@H](c1ccccc1)c1c(O)c2ccccc2oc1=O [(S)-warfarin],actual increase in the mean AUC caused by the drug interaction with AMIO,[1],27 to 110%
same,predicted increase in AUC,[2]; sum of [I]/KI ratios of AMIO and circulating metabolites,6 fold
same,predicted increase in AUC,"[2]; sum of [I]u/KI,u ratios of AMIO and circulating metabolites",6 fold
